The IC50 is the concentration needed to halve the response being measured.

A short description of the assay: Biological Assay: Each reaction was run at a volume of 20 μL containing 50 μM compound (dissolved in DMSO; final concentration of DMSO is 1% v/v), 40 nM human SARM1 (50-724), 0.3 mM NMN, 20 μM NAD, 1 mM TCEP, 25 mM HEPES pH 7.4, 10 mM KCl and 10 mM MgCl2. The reaction was incubated at room temperature for 60 minutes and quenched with 20 μL of 0.4% formic acid. The samples were run on Agilent HPLC 1260 Infinity II with Synergi 2.5 μM Fusion-RP 100 Å (100×3.0 mm) LC column from Phenomenex. Total run time for each sample was 4 minutes. The run was isocratic with 1.5% methanol in 40 mM ammonium acetate pH 6.0. Samples were run at a flow rate of 0.8 ml/min at 55° C. Peak areas of NAD and NAM were determined using OpenLAB CDS (Chem Station edition) software. For dose-response, the compound was diluted serially 1:3 in DMSO and added to the reaction starting at a final compound concentration of 100 μM in 1% DMSO.
As to `NC(c1nc(Cc2ccncc2)cs1)C(F)(F)F` (stereo not drawn), the IC50 result was “in the range around 55 µM”.
`O[C@@H](c1nc(Cc2ccncc2)c[nH]1)c1cncs1`: the IC50 was below 1 µM.
In the case of `OC(c1ccccn1)c1ncc(Cc2ccncc2)[nH]1` (stereo not drawn), the IC50 result is “in the range around 5.5 µM”.
For the compound `CN(C)C(c1ncc(Cc2ccncc2)[nH]1)C(F)(F)F` (stereo not drawn), the IC50 entry is “in the range around 55 µM”.
Regarding `OC(c1ncc(Cc2ccncc2)[nH]1)(c1cncs1)C(F)(F)F` (stereo not drawn), the IC50 result is “in the range around 55 µM”.
Regarding `CN[C@@H](c1ncc(Cc2ccncc2)[nH]1)C(F)(F)F`, the IC50 result was “in the range around 5.5 µM”.
Next, `N[C@@H](c1nc(Cc2ccncc2)c[nH]1)C(F)(F)F`: below 1 µM; `OC(c1nc(Cc2ccncc2Cl)c[nH]1)C(F)(F)F` (stereo not drawn): below 1 µM.
As to `C[C@@H](c1ccncc1)c1c[nH]c([C@H](O)C(F)(F)F)n1`, the IC50 entry was “in the range around 55 µM”.
As to `O[C@@H](c1ncc(Cc2ccncc2)[nH]1)C(F)(F)F`, the IC50 was below 1 µM.
Take `O[C@H](C1N=CC(Cc2ccncc2F)=N1)C(F)(F)F` (stereo partly drawn): the IC50 entry is “in the range around 5.5 µM”.
Next, `Cc1cnccc1Cc1c[nH]c([C@H](O)C(F)(F)F)n1`: below 1 µM; `OC(C1N=CC(Cc2ccncc2F)=N1)C(F)(F)F` (stereo not drawn): below 1 µM.
Next, `O[C@H](c1ncc(Cc2ccncc2)[nH]1)c1nccs1`: “in the range around 5.5 µM”; `CNC(c1ncc(Cc2ccncc2)[nH]1)C(F)(F)F` (stereo not drawn): “in the range around 5.5 µM”.
Next, `O[C@H](c1ncc(Cc2ccncc2)[nH]1)C(F)(F)F`: below 1 µM.
On to `C[C@@H](c1ccncc1)c1c[nH]c([C@@H](O)C(F)(F)F)n1`, for which the IC50 was below 1 µM.
In the case of `CC(c1ccncc1)c1c[nH]c(CC(F)(F)F)n1` (stereo not drawn), the IC50 was below 1 µM.
For the compound `CC(O)(c1nc(Cc2ccncc2)c[nH]1)C(F)(F)F` (stereo not drawn), the IC50 entry was “in the range around 5.5 µM”.
On to `C[C@H](c1ccncc1)c1c[nH]c(CC(F)(F)F)n1`, for which the IC50 is below 1 µM.
In the case of `CC(c1ccncc1)c1ccc(CC(F)(F)F)[nH]1` (stereo not drawn), the IC50 result was “in the range around 5.5 µM”.
`COC(c1ncc(Cc2ccncc2)[nH]1)C(F)(F)F` (stereo not drawn): the IC50 entry is “in the range around 5.5 µM”.
In the case of `Cc1cnccc1Cc1cnc([C@@H](O)c2cncs2)[nH]1` (single isomer, unassigned), the IC50 result was “in the range around 55 µM”.

Source of the values: ChEMBL document CHEMBL5729664, “Substituted pyridine derivatives as SARM1 inhibitors” (2023).
